Some results are limits rather than exact numbers.

In experiment [1] the target is NT-3 growth factor receptor (Homo sapiens, UniProt Q16288). As to the kind of experiment: Selectivity interaction (KinomeScan (DiscoverX)) EUB0000607a NTRK3. Particulars: at 10 µM.
Experiment [2] has as its target MAP kinase-activated protein kinase 3 (Homo sapiens) (UniProt Q16644). Briefly: Selectivity interaction (Kinase screening (Nanosyn)) EUB0000604a MAPKAPK3.
Experiment [3] addresses T1, NUAK family SNF1-like kinase 1 (Homo sapiens) (UniProt O60285).
T1 sequence (whole entry): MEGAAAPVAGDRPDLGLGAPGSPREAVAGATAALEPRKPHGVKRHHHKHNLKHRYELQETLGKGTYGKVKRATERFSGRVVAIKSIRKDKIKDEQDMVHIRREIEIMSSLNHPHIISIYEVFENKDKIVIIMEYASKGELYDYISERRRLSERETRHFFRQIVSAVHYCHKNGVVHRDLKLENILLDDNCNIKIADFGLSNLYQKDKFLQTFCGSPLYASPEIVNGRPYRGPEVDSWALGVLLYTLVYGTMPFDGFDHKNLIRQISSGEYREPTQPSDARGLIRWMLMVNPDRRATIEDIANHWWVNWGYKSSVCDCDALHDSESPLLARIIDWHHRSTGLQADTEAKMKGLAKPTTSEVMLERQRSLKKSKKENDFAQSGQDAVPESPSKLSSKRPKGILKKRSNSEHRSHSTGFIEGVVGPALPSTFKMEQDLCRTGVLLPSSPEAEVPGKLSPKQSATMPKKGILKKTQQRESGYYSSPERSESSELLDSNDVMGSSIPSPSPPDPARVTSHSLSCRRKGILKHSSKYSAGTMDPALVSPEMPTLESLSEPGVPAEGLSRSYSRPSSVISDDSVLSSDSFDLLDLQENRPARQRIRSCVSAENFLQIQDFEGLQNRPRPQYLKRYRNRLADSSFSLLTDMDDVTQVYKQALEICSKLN
As to the kind of experiment: Selectivity interaction (Kinase panel (literature)) EUB0001199aCl NUAK1. To be noted: at 1 µM.

The target of experiment [4] is Tyrosine-protein kinase receptor UFO (Homo sapiens) (UniProt P30530). As to the kind of experiment: Selectivity interaction (ProQinase) EUB0000171b AXL.
Experiment [5] concerns the target Serine/threonine-protein kinase PAK 1 (Homo sapiens) (UniProt Q13153). Briefly: Selectivity interaction (ProQinase) EUB0000171b PAK1.
The test system of experiment [6] is Tyrosine-protein kinase ABL1 (Homo sapiens), P00519 [F317L]. Briefly: Selectivity interaction (Ambit KINOMEscan and KiNATiv profiling in Jurkat cells) EUB0000090b ABL1. To be noted: at 1 µM. Type of experiment: cell-based.
Experiment [7] addresses MAP/microtubule affinity-regulating kinase 3 (Homo sapiens) (UniProt P27448). Briefly: Selectivity interaction (KinomeScan (DiscoverX)) EUB0001049a MARK3. Particulars: at 1 µM.
In experiment [8] the target is T2, Tyrosine-protein kinase ZAP-70 (Homo sapiens) (UniProt P43403).
T2 sequence (whole entry): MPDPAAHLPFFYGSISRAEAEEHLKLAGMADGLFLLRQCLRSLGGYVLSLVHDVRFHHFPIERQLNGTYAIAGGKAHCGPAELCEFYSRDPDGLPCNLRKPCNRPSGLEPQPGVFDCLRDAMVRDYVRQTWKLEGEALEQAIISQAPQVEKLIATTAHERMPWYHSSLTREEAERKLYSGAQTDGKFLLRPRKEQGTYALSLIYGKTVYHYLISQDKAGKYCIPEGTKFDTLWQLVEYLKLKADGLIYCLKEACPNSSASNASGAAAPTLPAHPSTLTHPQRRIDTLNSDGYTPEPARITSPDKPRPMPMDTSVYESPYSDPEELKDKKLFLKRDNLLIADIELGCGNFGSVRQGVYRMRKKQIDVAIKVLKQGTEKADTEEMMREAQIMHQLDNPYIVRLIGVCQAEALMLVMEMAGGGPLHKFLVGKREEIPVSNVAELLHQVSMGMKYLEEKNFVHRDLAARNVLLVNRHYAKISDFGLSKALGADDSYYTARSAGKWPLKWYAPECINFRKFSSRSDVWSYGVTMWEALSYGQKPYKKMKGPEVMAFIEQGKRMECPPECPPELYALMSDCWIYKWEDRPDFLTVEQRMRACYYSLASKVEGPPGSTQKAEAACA
As to the kind of experiment: Selectivity interaction (Upstate Kinase Profiler service (Millipore)) EUB0000056c ZAP70. Particulars: at 1 µM.

Another experiment concerns the target Ephrin type-A receptor 4 (Homo sapiens, UniProt P54764). As to the kind of experiment: Selectivity interaction (Kinase panel (33PanQinase(R) Activity Assay)) EUB0000877a EPHA4.
Experiment [9] concerns the target PH-interacting protein (Homo sapiens) (UniProt Q8WWQ0). Briefly: Selectivity interaction (Bromodomain panel (DSF asssay)) EUB0000270b PHIP.
Experiment [10] addresses Bromodomain testis-specific protein (Homo sapiens) (UniProt Q58F21). As to the kind of experiment: Selectivity interaction (Human bromodomain panel (DSF assay)) EUB0000233b BRDT. In general terms: In DSF a fluorescence change marks the thermal transition of the protein.
Experiment [11] addresses T3, Myotonin-protein kinase (Homo sapiens) (UniProt Q09013).
T3 sequence (whole entry): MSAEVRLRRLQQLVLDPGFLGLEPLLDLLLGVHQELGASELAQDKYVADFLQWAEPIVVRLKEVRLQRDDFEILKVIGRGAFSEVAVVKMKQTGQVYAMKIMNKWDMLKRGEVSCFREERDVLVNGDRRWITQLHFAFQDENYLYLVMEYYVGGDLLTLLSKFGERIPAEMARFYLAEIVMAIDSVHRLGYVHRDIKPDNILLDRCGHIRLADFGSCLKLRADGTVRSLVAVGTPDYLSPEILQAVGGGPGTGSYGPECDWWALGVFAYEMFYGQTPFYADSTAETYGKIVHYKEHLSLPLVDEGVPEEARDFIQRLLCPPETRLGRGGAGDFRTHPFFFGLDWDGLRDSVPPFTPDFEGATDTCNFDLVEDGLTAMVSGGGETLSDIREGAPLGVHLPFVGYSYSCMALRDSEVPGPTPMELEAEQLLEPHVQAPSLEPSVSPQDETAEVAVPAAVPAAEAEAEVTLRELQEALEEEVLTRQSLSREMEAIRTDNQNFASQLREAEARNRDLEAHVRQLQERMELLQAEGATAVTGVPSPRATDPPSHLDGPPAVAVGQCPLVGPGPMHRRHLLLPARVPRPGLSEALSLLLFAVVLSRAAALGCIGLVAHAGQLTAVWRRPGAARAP
As to the kind of experiment: Selectivity interaction (KinomeScan (DiscoverX)) EUB0001079a DMPK. To be noted: at 1 µM.

The target in a further experiment is Mu-type opioid receptor (Homo sapiens, UniProt P35372). Briefly: Selectivity interaction (GPCR panel (PDSP screen)) EUB0001079a OPRM1. To be noted: at 10 µM.
Chain of Mu-type opioid receptor (P35372 whole entry): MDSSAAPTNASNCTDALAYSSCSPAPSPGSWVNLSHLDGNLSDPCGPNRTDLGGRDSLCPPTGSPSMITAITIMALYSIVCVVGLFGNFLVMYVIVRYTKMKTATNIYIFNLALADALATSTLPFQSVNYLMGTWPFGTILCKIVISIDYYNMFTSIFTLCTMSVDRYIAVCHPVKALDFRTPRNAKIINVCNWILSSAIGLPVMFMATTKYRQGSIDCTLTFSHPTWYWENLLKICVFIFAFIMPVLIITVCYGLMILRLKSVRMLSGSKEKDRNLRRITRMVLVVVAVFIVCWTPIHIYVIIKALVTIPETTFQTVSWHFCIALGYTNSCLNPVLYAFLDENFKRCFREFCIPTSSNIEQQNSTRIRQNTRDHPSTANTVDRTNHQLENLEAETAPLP

Chain of Serine/threonine-protein kinase PAK 1 (Homo sapiens) (Q13153 whole entry): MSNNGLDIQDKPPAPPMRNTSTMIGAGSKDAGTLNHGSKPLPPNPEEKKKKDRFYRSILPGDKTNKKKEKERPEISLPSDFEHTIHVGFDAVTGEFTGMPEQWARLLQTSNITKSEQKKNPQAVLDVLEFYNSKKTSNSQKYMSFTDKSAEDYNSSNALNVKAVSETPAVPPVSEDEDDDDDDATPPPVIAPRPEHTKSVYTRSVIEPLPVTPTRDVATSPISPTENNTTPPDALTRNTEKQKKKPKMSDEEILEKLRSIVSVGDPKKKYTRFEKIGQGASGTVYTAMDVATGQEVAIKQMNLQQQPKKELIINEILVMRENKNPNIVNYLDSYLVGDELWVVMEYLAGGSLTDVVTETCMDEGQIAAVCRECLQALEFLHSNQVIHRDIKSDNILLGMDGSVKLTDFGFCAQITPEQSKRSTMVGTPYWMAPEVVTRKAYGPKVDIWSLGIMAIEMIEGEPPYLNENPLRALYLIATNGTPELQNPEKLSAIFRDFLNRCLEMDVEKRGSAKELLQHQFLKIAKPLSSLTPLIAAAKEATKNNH
Chain of Tyrosine-protein kinase receptor UFO (Homo sapiens) (P30530 whole entry): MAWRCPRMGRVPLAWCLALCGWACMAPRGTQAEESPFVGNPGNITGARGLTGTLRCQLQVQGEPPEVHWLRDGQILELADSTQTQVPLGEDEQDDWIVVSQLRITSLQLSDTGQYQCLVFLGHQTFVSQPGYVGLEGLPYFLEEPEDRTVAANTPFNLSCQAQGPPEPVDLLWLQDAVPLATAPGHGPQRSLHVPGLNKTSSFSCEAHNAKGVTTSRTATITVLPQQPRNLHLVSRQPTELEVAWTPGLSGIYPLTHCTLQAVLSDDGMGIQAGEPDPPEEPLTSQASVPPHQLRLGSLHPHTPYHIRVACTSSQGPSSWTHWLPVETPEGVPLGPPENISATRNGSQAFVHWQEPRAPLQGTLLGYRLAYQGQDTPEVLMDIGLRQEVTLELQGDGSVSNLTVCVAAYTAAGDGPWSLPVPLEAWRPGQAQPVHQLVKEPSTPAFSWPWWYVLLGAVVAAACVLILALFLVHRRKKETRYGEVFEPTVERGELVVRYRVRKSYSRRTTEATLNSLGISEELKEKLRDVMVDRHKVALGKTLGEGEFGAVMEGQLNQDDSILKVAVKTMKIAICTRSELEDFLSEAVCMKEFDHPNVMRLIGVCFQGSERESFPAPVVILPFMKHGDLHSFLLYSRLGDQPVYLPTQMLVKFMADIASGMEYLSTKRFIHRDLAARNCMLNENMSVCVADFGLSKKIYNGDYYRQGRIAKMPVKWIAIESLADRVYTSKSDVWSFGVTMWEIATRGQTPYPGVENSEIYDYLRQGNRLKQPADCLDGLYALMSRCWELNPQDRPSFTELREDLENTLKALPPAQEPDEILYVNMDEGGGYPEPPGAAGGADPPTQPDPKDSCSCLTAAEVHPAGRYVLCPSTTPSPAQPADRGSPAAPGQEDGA
Chain of MAP/microtubule affinity-regulating kinase 3 (Homo sapiens) (P27448 whole entry, looked up): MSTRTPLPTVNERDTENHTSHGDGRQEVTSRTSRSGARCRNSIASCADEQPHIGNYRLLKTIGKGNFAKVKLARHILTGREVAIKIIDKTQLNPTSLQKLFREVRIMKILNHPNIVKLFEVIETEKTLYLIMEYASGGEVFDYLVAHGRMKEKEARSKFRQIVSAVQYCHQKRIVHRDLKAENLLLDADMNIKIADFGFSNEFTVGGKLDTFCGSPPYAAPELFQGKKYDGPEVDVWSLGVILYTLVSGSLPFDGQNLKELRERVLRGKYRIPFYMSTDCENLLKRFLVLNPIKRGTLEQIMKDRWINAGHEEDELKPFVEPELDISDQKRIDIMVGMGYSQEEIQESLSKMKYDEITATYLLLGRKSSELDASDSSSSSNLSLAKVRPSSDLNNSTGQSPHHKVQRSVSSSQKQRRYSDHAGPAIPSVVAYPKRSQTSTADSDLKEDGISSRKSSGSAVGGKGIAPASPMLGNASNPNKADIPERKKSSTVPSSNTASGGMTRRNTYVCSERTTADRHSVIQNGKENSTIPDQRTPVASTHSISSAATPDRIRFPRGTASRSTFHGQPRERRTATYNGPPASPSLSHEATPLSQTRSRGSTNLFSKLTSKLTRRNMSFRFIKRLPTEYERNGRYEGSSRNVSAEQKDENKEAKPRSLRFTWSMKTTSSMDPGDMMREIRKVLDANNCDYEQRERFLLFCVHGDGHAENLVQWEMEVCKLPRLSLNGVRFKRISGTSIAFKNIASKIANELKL
Chain of Ephrin type-A receptor 4 (P54764 whole entry): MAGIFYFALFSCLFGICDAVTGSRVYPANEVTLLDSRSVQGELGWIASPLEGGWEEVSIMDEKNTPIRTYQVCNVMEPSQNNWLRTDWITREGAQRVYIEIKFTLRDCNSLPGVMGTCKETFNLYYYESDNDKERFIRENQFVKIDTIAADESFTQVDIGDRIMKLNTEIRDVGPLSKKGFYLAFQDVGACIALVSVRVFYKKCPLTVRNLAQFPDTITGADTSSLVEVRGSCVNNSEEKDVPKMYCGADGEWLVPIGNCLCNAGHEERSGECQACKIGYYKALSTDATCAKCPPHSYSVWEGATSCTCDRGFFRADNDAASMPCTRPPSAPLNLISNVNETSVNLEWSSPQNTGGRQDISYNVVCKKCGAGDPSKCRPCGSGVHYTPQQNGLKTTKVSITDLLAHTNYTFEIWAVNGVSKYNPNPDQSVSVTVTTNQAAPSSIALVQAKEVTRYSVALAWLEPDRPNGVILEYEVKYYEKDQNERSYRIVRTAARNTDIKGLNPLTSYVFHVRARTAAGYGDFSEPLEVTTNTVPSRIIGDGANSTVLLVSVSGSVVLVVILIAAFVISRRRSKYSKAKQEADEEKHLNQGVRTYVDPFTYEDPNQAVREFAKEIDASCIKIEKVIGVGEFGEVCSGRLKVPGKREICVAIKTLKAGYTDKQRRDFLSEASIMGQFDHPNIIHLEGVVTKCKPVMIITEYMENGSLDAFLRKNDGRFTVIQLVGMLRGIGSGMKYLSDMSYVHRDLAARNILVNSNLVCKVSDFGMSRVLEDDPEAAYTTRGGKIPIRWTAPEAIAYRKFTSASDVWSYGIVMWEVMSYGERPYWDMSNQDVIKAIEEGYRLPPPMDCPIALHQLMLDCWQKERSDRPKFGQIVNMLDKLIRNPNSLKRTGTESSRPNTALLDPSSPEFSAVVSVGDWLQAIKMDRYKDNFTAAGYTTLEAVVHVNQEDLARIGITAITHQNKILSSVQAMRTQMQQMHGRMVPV
Chain of NT-3 growth factor receptor (Q16288 32-839 limits assumed): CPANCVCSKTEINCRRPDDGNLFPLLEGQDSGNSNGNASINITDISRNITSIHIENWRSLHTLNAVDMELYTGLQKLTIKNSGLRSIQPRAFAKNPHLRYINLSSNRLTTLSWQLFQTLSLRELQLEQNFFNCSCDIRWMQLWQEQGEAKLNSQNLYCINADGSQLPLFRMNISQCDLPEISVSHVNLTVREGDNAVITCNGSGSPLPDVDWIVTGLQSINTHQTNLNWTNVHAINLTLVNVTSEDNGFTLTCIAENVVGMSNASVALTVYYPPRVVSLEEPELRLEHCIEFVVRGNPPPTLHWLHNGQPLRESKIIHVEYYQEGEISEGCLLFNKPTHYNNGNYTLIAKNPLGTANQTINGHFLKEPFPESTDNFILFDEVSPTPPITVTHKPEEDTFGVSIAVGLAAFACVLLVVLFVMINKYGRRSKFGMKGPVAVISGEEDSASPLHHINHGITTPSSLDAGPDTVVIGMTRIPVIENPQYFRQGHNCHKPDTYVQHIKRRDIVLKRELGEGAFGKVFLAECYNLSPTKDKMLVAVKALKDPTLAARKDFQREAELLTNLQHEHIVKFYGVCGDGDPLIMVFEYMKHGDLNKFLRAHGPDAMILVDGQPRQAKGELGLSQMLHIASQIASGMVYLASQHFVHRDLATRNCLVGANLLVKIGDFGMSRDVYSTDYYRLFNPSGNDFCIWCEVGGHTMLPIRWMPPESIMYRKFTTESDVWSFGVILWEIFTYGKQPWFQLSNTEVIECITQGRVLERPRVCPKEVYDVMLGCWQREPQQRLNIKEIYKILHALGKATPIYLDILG
Chain of MAP kinase-activated protein kinase 3 (Homo sapiens) (Q16644 whole entry, looked up): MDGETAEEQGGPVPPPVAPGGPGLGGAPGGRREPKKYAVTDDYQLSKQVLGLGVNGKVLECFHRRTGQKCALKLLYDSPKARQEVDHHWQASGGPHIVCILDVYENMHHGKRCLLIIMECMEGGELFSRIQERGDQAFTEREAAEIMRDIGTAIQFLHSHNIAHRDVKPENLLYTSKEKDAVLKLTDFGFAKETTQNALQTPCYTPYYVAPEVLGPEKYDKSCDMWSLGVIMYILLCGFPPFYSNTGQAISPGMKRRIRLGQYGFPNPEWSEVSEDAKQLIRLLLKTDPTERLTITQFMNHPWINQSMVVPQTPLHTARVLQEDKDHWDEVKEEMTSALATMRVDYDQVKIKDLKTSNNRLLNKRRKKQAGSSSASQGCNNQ

Take `CNC(=O)Nc1ccc(-c2nc(N3CC4CCC(C3)O4)c3cnn(C4CCC5(CC4)OCCO5)c3n2)cc1`: in experiment [1], the % of control was found to be 93%. As for `Cc1cnc(Nc2ccc(F)cc2Cl)nc1-c1c[nH]c(C(=O)N[C@H](CO)c2cccc(Cl)c2)c1`, the % of inhibition in experiment [2] worked out at 5%. As for `CN1Cc2nccc(-c3cn(C)nc3-c3ccc(F)cc3)c2C1=O`, the % of inhibition in experiment [3] is -6%.

`C=CC(=O)Nc1cccc(C(=O)Nc2ccc(Nc3cc(-c4[nH]c(SC)nc4C)ccn3)cc2)c1`: the % of control in experiment [4] (at 1 µM) came to 99%; in [4] (at 5 µM), 76%; in [5] (at 1 µM), 90%; in experiment [5] (at 5 µM), 84%. Turning to `CN(C)C/C=C/C(=O)Nc1ccc(C(=O)N2CCCC(Nc3ncc(Cl)c(-c4c[nH]c5ccccc45)n3)C2)cc1` (stereo not given), the % of control in experiment [6] came to 100%.

Take `COc1cc(Nc2nc(C)cc(-c3cnn4nc(OC)ccc34)n2)cc(C(F)(F)F)c1`: in [7], the % of control is 77%.

On to `Cc1ccc(-c2ccc3c(ccc4sc5c(c43)NC[C@@H](C)NC5=O)n2)cn1`, for which the % of inhibition in experiment [8] was -8%.

As a reminder, the IC50 is the concentration at which inhibition is half-maximal. Higher therefore signals a need for much substance. At Ephrin type-A receptor 4, `CCC(=O)N1CC[C@H](Nc2ncnc3c2CN(c2cnc(OC)c(C(F)(F)F)c2)CC3)C1` [LENIOLISIB] displayed an IC50 of more than 10 µM.

In the case of `Cc1cc(CN)cc(C)c1-c1ncn(C)c1-c1cncn1C`, the dTM in [9] is -1.36 K. `CN(C)CCCOc1ccc(-c2cc(NCCCn3cccn3)nc(S(C)(=O)=O)n2)cc1`: the dTM in [10] was less than 2 K. As to `Nc1cnc(N2CCc3cc(S(=O)(=O)Nc4c(F)cc(Cl)cc4F)cc(N4CCCC4=O)c32)nc1` [TP-020n], in [11], the % of control amounted to 100%. The % of inhibition at Mu-type opioid receptor is -1.31%.
